In US20250082573A1, “COMPOSITIONS AND METHODS FOR DELIVERY OF OCULAR THERAPEUTICS” (The Board of Trustees of the Leland Stanford Junior …, priority 2023, published 2025):

How the values were obtained:
[1] = following IV administration; cited from earlier work
[2] = VH mimic depot formation and model cargo release assay; assay type: physicochemical; conditions: cargo in PNP hydrogel vs PBS bolus, 50 μL into VH mimic; fluorescein 0.25 mg mL^−1, albumin-FITC 10 mg mL^−1
Description: This example describes PNP-2-10 hydrogel depot formation and model cargo release in a VH mimic. The PNP-2-10 hydrogel was prepared as described in Example 1. The present technology is directed to ITV administration of PNP hydrogels in the sensitive environment of the eye. To better visualize and understand how the PNP hydrogels would behave in the VH, depot formation and model cargo release were analyzed in a VH mimic composed of agar and hyaluronic acid (HA). […]
To prepare the VH mimic release assay, 50 μL of PNP hydrogel or PBS loaded with either 0.25 mg mL^−1 fluorescein or 10 mg mL^−1 albumin-FITC (MW˜66 kDa, mol FITC:mol albumin=14) was injected through a 30-gauge needle into a cuvette containing a VH mimic. […] Dye release was quantified using ImageJ software. Images were separated into red, blue, and green channels and the intensity in the green channel within a region inside the hydrogel depot or initial PBS injection site was measured for each time point, denoted Itn. […] The fraction of dye remaining in the gel depot at the final time point was determined by comparing the change in background intensity from times t0 to tplateau for PBS and gel samples:
The percent of dye retained in the gel or PBS injection site at each time point tn was determined by normalizing the intensity as
where tf is the final time point measured and C is a constant defined by […]

CCNC(=O)CCC/C=C\C[C@@H]1[C@@H](/C=C/[C@@H](O)CCc2ccccc2)[C@H](O)C[C@@H]1O [bimatoprost]
elimination half-life [1]: 45 min

albumin-FITC: a model protein, MW˜66 kDa, mol FITC:mol albumin=14
increase of effective half-life of retention compared to the control PBS bolus [2]: over 3.7 fold
